Experimental data taken from US6248718A, “Lesion-directed dry dosage forms of antibacterial agents for the treatment of acute mucosal infections of the oral cavity” (priority 1999, dated 2001).
≈ marks a conversion by molar mass, not a printed value. Where “and” joins values, the source holds several entries; their conditions need not be identical. Identical values can stand only once. Entries after “also recorded” stand apart in the source; their conditions may differ. Counter-ions that a name gives are not always drawn. Like-named read-outs stand apart in the source and are kept apart here.

Key:
[1] = Local concentration of oxytetracycline hydrochloride in saliva after a 50 mg troche; details: for peak concentration locally at the site of the ulcer: assuming troche is dissolved in 0.1 ml of saliva
Text: The final concentrations of oxytetracycline in the control standard nutrient broth were 0.25 mcg/ml, 0.5 mcg/ml, 1.0 mcg/ml, 2.0 mcg/ml, 4.0 mcg/ml, and 8.0 mcg/ml. The final dilutions of saliva sample were 1/50,000, 1/100,000, 1/200,000, 1/400,000, 1/800,000 and 1/1,600,000 for the peak concentration test tubes and 1/4,000. 1/8,000, 1/16,000 and 1/32,000 for the trough concentration test tubes. The Staphylococcus aureus (ATCC 29213) was also used as the standard test microorganism.

[2] = system: human salivary microbial flora; test: Minimal total inhibition concentration of ciprofloxacin for human salivary microbial flora (Example XI); assay type: cell-based; details: 1 h, aerobic blood agar
Procedure: (§1) Source of human salivary flora: undiluted saliva freshly collected from the mouth of a healthy adult who had refrained from fluid or food intake for three hours after breakfast prior to saliva collection.
Antibacterial agent: Cipro (a member of the quinolone group) I.V. 200 mg in 20 ml (1%) for intravenous infusion. […] Division Bayer Corporation. Procedure:
1) An aliquot of 1 ml of the Cipro solution, 1%, was added to 1.5 ml to make a total volume of 2.5 ml, equivalent to a 4 mg/ml concentration of the antibacterial agent in saliva.
2) An aliquot of 0.2 ml of the 4 mg/ml Cipro salivary solution was pipetted out for serial double dilutions in saliva in test tubes to the final concentrations of 4, 2, 1, 0.5, 0.25 and 0.12 mg of Cipro per ml, respectively.
3) All tubes containing saliva with different concentrations of Cipro were incubated in 37 degrees Celsius for one hour.
4) At the end of the one-hour incubation, 0.1 ml of the salivary Cipro solution was pipetted from each test tube and inoculated on the surface of a blood agar plate. An aliquot of 0.1 ml saliva sample containing no Cipro was spread on the surface of a blood agar plate as control.
(§2) 5) After 18 hours of incubation in 37 degrees Celsius aerobically, the growth on the blood agar plates was inspected and compared for the presence or absence of bacterial colonies.

[3] = Local concentration of penicillin in saliva after a troche containing 50 mg penicillin G; assay type: in vivo, human; details: assuming troche is dissolved in 0.1 ml of saliva
Procedure: The local concentration of penicillin in the saliva was determined as follows. […] This loculated pocket of saliva was not swallowed and was not to be diluted with excess saliva from other parts of the mouth for one hour. Two samples were taken for assay to determine the peak and trough local concentrations of penicillin during the one-hour duration of medicinal treatment. At the time when the troche was completely dissolved and one hour later, aliquots of 10 microliters were pipetted from this pocket of saliva solution at the site of medication, representing the peak level and the trough level of antibiotic concentration, and transferred into 10 ml of distilled water to make a 1:1.000 dilution and into 1 ml of distilled water to make a 1:100 dilution, respectively. The diluted saliva antibiotic solutions were passed through a sterile bacteria-filter to remove any bacterial or fungal contaminants of the oral flora.
For determination of the peak concentration, 1 ml of the bacteria-free filtrate was further diluted with 9 ml of nutrient broth to achieve a 1:10,000 dilution of the saliva. Then a serial two-fold dilution was made of this 1:10,000 diluted saliva sample with an equal volume of nutrient broth in a roll of test tubes to obtain a series of 1 ml aliquots of nutrient broth in which the saliva was diluted to 20,000, 40,000, 80,000, 160,000, 320,000, 640,000, 1,280,000 and 2,560,000 folds respectively. […] Thus the final dilutions of the saliva sample were in the range of 40,000 to 5,120,000 folds.
For determining the trough concentration, the entire 1 ml of the 1:100 diluted saliva filtrate was used to make the serial dilutions so that the final dilutions of saliva sample were in the range of 4,000 to 256,000 folds in the final test culture.
As control standards, a series of test tubes containing 1 ml of nutrient broth with varying concentrations of penicillin G potassium salt ranging from 0.1 units to 10 units/ml were similarly mixed with an equal volume of nutrient broth freshly inoculated with the standard tubes of Staphylococcus aureus. Both the test and control standard tubes were incubated at 37° C. for 18 hours. Among the test tubes showing no gross evidence of bacterial growth, the one containing the highest dilution of saliva and the one containing the least amount of penicillin G were considered as having the identical concentration of penicillin, i.e. the MIC of the staphylococcus aureus.

[4] = system: human salivary microbial flora; test: Minimal total inhibition concentration of tetracyclines for human salivary microbial flora (Example X); assay type: cell-based; details: for bacterial growth from treated saliva: 1 h, aerobic blood agar
Procedure: as §1
Antibacterial agent: Doxycycline cyclate (a tetracycline) for injection USP, equivalent to 100 mg Doxycycline (Fugusawa USA, Inc., Deerfield, IL 60015-2548. Procedure:
1) An adequate amount of saliva was added to the vial of doxycycline to make a total volume of suspension of 3.1 ml, equivalent to a 32 mg/ml concentration of the antibacterial agent.
2) An aliquot of 0.2 ml of the 32 mg/ml doxycycline salivary solution was pipetted out for serial double dilutions in saliva in test tubes to the final concentrations of 32, 16, 8, 4, 2, 1, 0.5, 0.25 and 0.12 mg of doxycycline per ml.
3) All tubes containing saliva with different concentrations of doxycycline were incubated in 37 degrees Celsius for one hour.
4) At the end of the one-hour incubation, 0.1 ml of the salivary doxycycline solution was pipetted from each test tube and inoculated on the surface of a blood agar plate. An aliquot of 0.1 ml saliva sample containing no antibacterial agent was spread on the surface of a blood agar plate as control.
as §2

[5] = Topical dry dosage treatment of minor aphthous ulcers, gingivitis and periodontal infections; assay type: in vivo, human; details: 50 mg dry dosage form, four times a day
Text: The administration of the medicament depends upon the type of infection to be treated and the type and dosage of the antibacterial agent used. The appropriate antibacterial agent, dosage and treatment regimen can readily be determined by someone having ordinary skill in this art. […] Thorough tooth cleaning is advised prior to introduction of the medicament to an infected area.

[6] = cited from earlier work
[7] = cited from earlier work; remark: listed apart in the source

CN(C)[C@@H]1C(=O)C(C(N)=O)=C(O)[C@@]2(O)C(=O)C3=C(O)c4c(O)cccc4[C@@](C)(O)[C@H]3[C@H](O)[C@@H]12 [oxytetracycline hydrochloride]
trough concentration in saliva ([1]; 50 mg oxytetracycline hydrochloride troche, one hour, 60 min, hydrochloride): 8 mg/mL
initial peak concentration in saliva ([1]; 50 mg oxytetracycline hydrochloride troche, two subjects, hydrochloride): 800 mg/mL and 400 to 800 mg/mL
peak concentration locally at the site of the ulcer [1]: 400 to 800 mg/mL

O=C(O)c1cn(C2CC2)c2cc(N3CCNCC3)c(F)cc2c1=O [ciprofloxacin]
bacterial growth from treated saliva ([2]; 0.5 mg/ml): A few surviving or uninhibited bacteria grew into colonies
bacterial growth from treated saliva ([2]; 0.5, 0.25 and 0.12 mg/ml): Varying numbers of bacterial colonies were observed
bacterial growth from treated saliva ([2]; 1, 2 and 4 mg/ml): either destroyed or totally inhibited
bacterial growth from treated saliva ([2]; 1, 2 and 4 mg/ml, listed as Cipro): No bacterial colonies were observed

CCCCCCCCCCCCCCCCCC(=O)O [magnesium stearate]
peak concentration locally at the site of the ulcer [1]: 10 mg/mL
initial concentration at the ulcer [3]: 10 mg/mL

C[C@H]1c2cccc(O)c2C(O)=C2C(=O)[C@]3(O)C(O)=C(C(N)=O)C(=O)[C@@H](N(C)C)[C@@H]3[C@@H](O)[C@@H]21 [doxycycline hyclate]
bacterial growth from treated saliva ([4]; 0.5 mg/ml): A few surviving or uninhibited bacteria grew into colonies
bacterial growth from treated saliva ([4]; 0.5, 0.25 and 0.12 mg/ml): Varying numbers of bacterial colonies were observed
bacterial growth from treated saliva ([4]; 1, 2, 4, 8, 16, 32 mg/ml): No bacterial colonies were observed; also recorded: either destroyed or totally inhibited
MIC ([4]; read-out: minimal total inhibition concentration, human salivary microbial flora): ~1000 µg/mL (≈ 2250 µM)
patients with complete relief of pains within about 48 hours [5]: over 90%
time to complete relief of pains [5]: ≤ 48 h
peak serum level ([6]; intravenous injection of 100 mg): 2.5 µg/mL
peak serum level ([6]; intravenous injection of 200 mg): 2.6 µg/mL
peak serum level ([6]; oral 200 mg, fasting adults): 2.6 to 3 µg/mL
peak serum concentration ([6]; oral ingestion of 100, fasting adults): 1.5 to 2.1 µg/mL

O=C1CCC(N2C(=O)c3ccccc3C2=O)C(=O)N1 (centres unmarked) [Thalidomide]
effectiveness of treatment ([7]; earlier treatments of oral infections / aphthous ulcers): effective in some HIV-infected patients
adverse effect ([7]; literature): teratogenic

CN(C)[C@@H]1C(=O)C(C(N)=O)=C(O)[C@@]2(O)C(=O)C3=C(O)c4c(O)cccc4[C@@](C)(O)[C@H]3C[C@@H]12 [tetracycline HCL]
patients with complete relief of pains within about 48 hours [5]: over 90%
time to complete relief of pains [5]: ≤ 48 h
